From the supplement of paper PMC10307832

Experiments:
Experiment in all cases: relative viability (nuclei count vs DMSO), 5 days (fraction); higher = more cells survive
[1] = tested on: NCI-H2126
Procedure, shortened: (§1)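 Values are medians from duplicate plates. Each reflects relative viability, defined as the nuclei count of treated wells over that of vehicle wells. Lung cancer cell lines in 1536-well plates were pin-tool dosed one day after seeding with one drug alone or with a fixed anchor-drug dose plus five library-drug doses (not always all listed) in √10 steps, then fixed, stained and imaged at 4× after 5 days.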

[2] = tested on: NCI-H1915
Procedure, shortened: as §1

[3] = tested on: LCLC-97TM1
Procedure, shortened: as §1

[4] = tested on: HCC-78
Procedure, shortened: as §1

[5] = tested on: ChaGo-K-1
Procedure, shortened: as §1

[6] = tested on: NCI-H1666
Procedure, shortened: as §1

[7] = tested on: NCI-H2087
Procedure, shortened: as §1

[8] = tested on: NCI-H2347
Procedure, shortened: as §1

[9] = tested on: PC-14
Procedure, shortened: as §1

[10] = tested on: NCI-H2405
Procedure, shortened: as §1

[11] = tested on: COR-L 105
Procedure, shortened: as §1

[12] = tested on: HCC-827
Procedure, shortened: as §1

[13] = tested on: NCI-H520
Procedure, shortened: as §1

[14] = tested on: NCI-H23
Procedure, shortened: as §1

[15] = tested on: EPLC-272H
Procedure, shortened: as §1

[16] = tested on: RERF-LC-KJ
Procedure, shortened: as §1

[17] = tested on: NCI-H647
Procedure, shortened: as §1

[18] = tested on: LC-2-ad
Procedure, shortened: as §1

[19] = tested on: 201T
Procedure, shortened: as §1

[20] = tested on: H3255
Procedure, shortened: as §1

For `Cc1sc2c(c1C)C(c1ccc(Cl)cc1)=N[C@@H](CC(=O)OC(C)(C)C)c1nnc(C)n1-2` [JQ1] + CC1(C)CCC(c2ccc(Cl)cc2)=C(CN2CCN(c3ccc(C(=O)NS(=O)(=O)c4ccc(N[C@H](CCN5CCOCC5)CSc5ccccc5)c(S(=O)(=O)C(F)(F)F)c4)cc3)CC2)C1 [Navitoclax] (partner 0.5 µM), the relative viability ([1]; first compound 0.04 µM) was 0.892, the relative viability ([1]; first compound 0.1265 µM) was 0.733 and the relative viability ([1]; first compound 0.4 µM) was 0.843. It also gave a relative viability ([1]; first compound 1.265 µM) of 0.578, a relative viability ([1]; first compound 4 µM) of 0.555 and a relative viability ([2]; first compound 0.04 µM) of 0.781. It also gave a relative viability ([2]; first compound 0.1265 µM) of 0.567, a relative viability ([2]; first compound 0.4 µM) of 0.698 and a relative viability ([2]; first compound 1.265 µM) of 0.419. For the same molecule, the relative viability ([2]; first compound 4 µM) was 0.198, the relative viability ([3]; first compound 0.1265 µM) was 0.329 and the relative viability ([3]; first compound 0.4 µM) was 0.403. For the same molecule, the relative viability ([3]; first compound 1.265 µM) was 0.175, the relative viability ([3]; first compound 4 µM) was 0.152 and the relative viability ([4]; first compound 0.04 µM) was 0.799. The relative viability ([4]; first compound 0.1265 µM) was 0.761, the relative viability ([4]; first compound 0.4 µM) was 0.465 and the relative viability ([4]; first compound 1.265 µM) was 0.285. For the same molecule, the relative viability ([4]; first compound 4 µM) was 0.242, the relative viability ([5]; first compound 0.04 µM) was 1.08 and the relative viability ([5]; first compound 0.4 µM) was 0.868. For the same molecule, the relative viability ([5]; first compound 1.265 µM) was 0.405, the relative viability ([5]; first compound 4 µM) was 0.481 and the relative viability ([6]; first compound 0.04 µM) was 0.926. For the same molecule, the relative viability ([6]; first compound 0.1265 µM) was 0.899, the relative viability ([6]; first compound 0.4 µM) was 0.787 and the relative viability ([6]; first compound 1.265 µM) was 0.438. For the same molecule, the relative viability ([6]; first compound 4 µM) was 0.513, the relative viability ([7]; first compound 0.04 µM) was 1.03 and the relative viability ([7]; first compound 0.4 µM) was 0.74. The relative viability ([7]; first compound 1.265 µM) was 0.552, the relative viability ([7]; first compound 4 µM) was 0.502 and the relative viability ([8]; first compound 0.04 µM) was 0.782. It also gave a relative viability ([8]; first compound 0.1265 µM) of 0.691, a relative viability ([8]; first compound 0.4 µM) of 0.571 and a relative viability ([8]; first compound 1.265 µM) of 0.316. The relative viability ([8]; first compound 4 µM) was 0.286, the relative viability ([9]; first compound 0.04 µM) was 0.944 and the relative viability ([9]; first compound 0.1265 µM) was 0.957. It also gave a relative viability ([9]; first compound 0.4 µM) of 0.937, a relative viability ([9]; first compound 1.265 µM) of 0.672 and a relative viability ([9]; first compound 4 µM) of 0.303. It also gave a relative viability ([10]; first compound 0.04 µM) of 0.886, a relative viability ([10]; first compound 0.4 µM) of 0.491 and a relative viability ([10]; first compound 1.265 µM) of 0.136. For the same molecule, the relative viability ([10]; first compound 4 µM) was 0.117, the relative viability ([11]; first compound 0.04 µM) was 0.707 and the relative viability ([11]; first compound 0.1265 µM) was 0.567. For the same molecule, the relative viability ([11]; first compound 0.4 µM) was 0.462, the relative viability ([11]; first compound 1.265 µM) was 0.282 and the relative viability ([11]; first compound 4 µM) was 0.326. It also gave a relative viability ([12]; first compound 0.04 µM) of 0.95, a relative viability ([12]; first compound 0.4 µM) of 1.14 and a relative viability ([12]; first compound 1.265 µM) of 0.94. It also gave a relative viability ([12]; first compound 4 µM) of 0.689, a relative viability ([13]; first compound 0.04 µM) of 1.1 and a relative viability ([13]; first compound 0.1265 µM) of 1.19. The relative viability ([13]; first compound 0.4 µM) was 0.905, the relative viability ([13]; first compound 1.265 µM) was 0.404 and the relative viability ([13]; first compound 4 µM) was 0.297. The relative viability ([14]; first compound 0.04 µM) was 0.687, the relative viability ([14]; first compound 0.1265 µM) was 0.781 and the relative viability ([14]; first compound 0.4 µM) was 0.62. The relative viability ([14]; first compound 1.265 µM) was 0.395, the relative viability ([14]; first compound 4 µM) was 0.144 and the relative viability ([15]; first compound 0.04 µM) was 1.14. It also gave a relative viability ([15]; first compound 0.1265 µM) of 0.958, a relative viability ([15]; first compound 0.4 µM) of 1.06 and a relative viability ([15]; first compound 1.265 µM) of 0.462. The relative viability ([15]; first compound 4 µM) was 0.321, the relative viability ([16]; first compound 0.04 µM) was 0.867 and the relative viability ([16]; first compound 0.1265 µM) was 1.06. It also gave a relative viability ([16]; first compound 0.4 µM) of 0.981, a relative viability ([16]; first compound 1.265 µM) of 0.275 and a relative viability ([16]; first compound 4 µM) of 0.33. The relative viability ([17]; first compound 0.04 µM) was 1.1, the relative viability ([17]; first compound 0.1265 µM) was 0.709 and the relative viability ([17]; first compound 0.4 µM) was 0.498. The relative viability ([17]; first compound 1.265 µM) was 0.141, the relative viability ([17]; first compound 4 µM) was 0.0972 and the relative viability ([18]; first compound 0.04 µM) was 0.486. The relative viability ([18]; first compound 0.1265 µM) was 0.58, the relative viability ([18]; first compound 0.4 µM) was 0.376 and the relative viability ([18]; first compound 1.265 µM) was 0.196. For the same molecule, the relative viability ([18]; first compound 4 µM) was 0.175, the relative viability ([19]; first compound 0.04 µM) was 1.23 and the relative viability ([19]; first compound 0.1265 µM) was 0.977. For the same molecule, the relative viability ([19]; first compound 0.4 µM) was 1.15, the relative viability ([19]; first compound 1.265 µM) was 0.842 and the relative viability ([19]; first compound 4 µM) was 0.618. It also gave a relative viability ([20]; first compound 0.04 µM) of 0.495, a relative viability ([20]; first compound 0.1265 µM) of 0.441 and a relative viability ([20]; first compound 0.4 µM) of 0.566. It also gave a relative viability ([20]; first compound 1.265 µM) of 0.268 and a relative viability ([20]; first compound 4 µM) of 0.258.
